We go through four compounds from ChEMBL document CHEMBL1138892, “Synthesis of Hsp90 dimerization modulators” (Bioorg Med Chem Lett, 2006).

This assay deals with Heat shock protein HSP90 (Homo sapiens, UniProt P07900+P08238).
Description: Displacement of GM-BODIPY from Hsp90
`COC1=C2C[C@@H](C)C[C@H](OC)[C@H](O)[C@@H](C)/C=C(\C)[C@H](OC(N)=O)[C@@H](OC)/C=C\C=C(/C)C(=O)NC(=C(NC/C=C\CNC3=C4NC(=O)/C(C)=C/C=C\[C@H](OC)[C@@H](OC(N)=O)/C(C)=C/[C@H](C)[C@@H](O)[C@@H](OC)C[C@H](C)CC(=C(OC)C3=O)C4=O)C1=O)C2=O` gave an EC50 of 345 nM.

Turning to `COC1=C2C[C@@H](C)C[C@H](OC)[C@H](O)[C@@H](C)/C=C(\C)[C@H](OC(N)=O)[C@@H](OC)/C=C\C=C(/C)C(=O)NC(=C(NC/C=C/CNC3=C4NC(=O)/C(C)=C/C=C\[C@H](OC)[C@@H](OC(N)=O)/C(C)=C/[C@H](C)[C@@H](O)[C@@H](OC)C[C@H](C)CC(=C(OC)C3=O)C4=O)C1=O)C2=O`, the EC50 is listed as 45 nM. Under `COC1=C2C[C@@H](C)C[C@H](OC)[C@H](O)[C@@H](C)/C=C(\C)[C@H](OC(N)=O)[C@@H](OC)/C=C\C=C(/C)C(=O)NC(=C(NCCCCCCCCCNC3=C4NC(=O)/C(C)=C/C=C\[C@H](OC)[C@@H](OC(N)=O)/C(C)=C/[C@H](C)[C@@H](O)[C@@H](OC)C[C@H](C)CC(=C(OC)C3=O)C4=O)C1=O)C2=O` stands 465 nM; under `COC1=C2C[C@@H](C)C[C@H](OC)[C@H](O)[C@@H](C)/C=C(\C)[C@H](OC(N)=O)[C@@H](OC)/C=C\C=C(/C)C(=O)NC(=C(NCCCCNC3=C4NC(=O)/C(C)=C/C=C\[C@H](OC)[C@@H](OC(N)=O)/C(C)=C/[C@H](C)[C@@H](O)[C@@H](OC)C[C@H](C)CC(=C(OC)C3=O)C4=O)C1=O)C2=O`, 91 nM.

Usually EC50 stands for the midpoint of the concentration-response curve. Low readings indicate an effect from little substance, high ones a need for much substance.
